This note sets out measurements from BindingDB's records for doi:10.1016/S1074-5521(02)00281-8 (Massachusetts Institute of Technology, 2002).

Starred links: 1 amine or outer side, 2 acyl side, 3 side chain; linkers in the order of their positions; H or OH if unused. Positions of bridges follow the written chain, without caps; N, C: chain ends. Non-standard residues stand in square brackets, D forms with d. Residues, ends and D or L forms follow the SMILES beside them. Chains are numbered I, II in the order given. Actinocin(9to1) = Cc1c2oc3c(C)ccc(C(=O)[*:1])c3nc-2c(C(=O)[*:2])c(N)c1=O; NMeV = CN[C@H](C(=O)O)C(C)C; Sar = CNCC(=O)O

The target of this assay is T1, Dolichyl-diphosphooligosaccharide--protein glycosyltransferase subunit 1 (Saccharomyces cerevisiae, UniProt P41543).
T1 sequence (P41543 whole entry): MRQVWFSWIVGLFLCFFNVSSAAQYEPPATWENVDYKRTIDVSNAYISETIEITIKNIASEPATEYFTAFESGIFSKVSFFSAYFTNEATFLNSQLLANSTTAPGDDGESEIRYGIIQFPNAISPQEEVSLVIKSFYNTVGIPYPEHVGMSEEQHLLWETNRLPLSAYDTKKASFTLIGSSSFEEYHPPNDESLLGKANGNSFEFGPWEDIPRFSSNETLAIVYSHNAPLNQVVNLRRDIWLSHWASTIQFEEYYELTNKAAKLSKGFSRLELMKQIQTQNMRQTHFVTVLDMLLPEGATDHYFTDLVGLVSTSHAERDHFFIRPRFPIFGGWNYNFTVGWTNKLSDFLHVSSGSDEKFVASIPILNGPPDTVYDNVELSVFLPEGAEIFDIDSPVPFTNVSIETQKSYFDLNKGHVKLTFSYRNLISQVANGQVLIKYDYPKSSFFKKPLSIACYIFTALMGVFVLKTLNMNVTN
Put plainly: Competition Assay. To be noted: pH 7.5; 0 °C. From the text: Competition assay using S. cerevisiae oligosaccharyl transferase (OT)with disaccharide donor Dol-P-P-(GlcNAc)2 and the tripeptide substrate Bz-Asn-Leu-Thr-NHMe.
Usually Ki stands for the equilibrium dissociation constant of an inhibitor or competing ligand from its target. Higher therefore signals a looser hold on the target. The molecule `COc1ccc(OC)c(Nc2nc(NCCCN(C)C)nc(N)c2[N+](=O)[O-])c1` [3-[[4-amino-6-(2,5-dimethoxyanilino)-5-nitro-pyrimidin-2-yl]amino]propyl-dimethyl-amine] displayed a Ki of 1.1 µM. In other words, the single-digit micromolar range.
To `COc1ccc(NS(=O)(=O)c2ccc(NC(=O)C(CCSC)NC(N)=O)cc2)cc1` (stereo not drawn) [2-(aminocarbonylamino)-N-[4-[(4-methoxyphenyl)sulfamoyl]phenyl]-4-methylsulfanyl-butanamide] belongs 34 µM; to `Cc1c2oc3c(C)ccc(C(=O)N[C@@H]4C(=O)N[C@H](C(C)C)C(=O)N5CCC[C@H]5C(=O)N(C)CC(=O)N(C)[C@@H](C(C)C)C(=O)O[C@@H]4C)c3nc-2c(C(=O)N[C@@H]2C(=O)N[C@H](C(C)C)C(=O)N3CCC[C@H]3C(=O)N(C)CC(=O)N(C)[C@@H](C(C)C)C(=O)O[C@@H]2C)c(N)c1=O` [2-amino-N,N''-bis[(3R,6S,7R,10S,16S)-3,10-diisopropyl-2,5,9,12,15-pentaketo-7,11,14-trimethyl-8-oxa-1,4,11,14-tetrazabicyclo[14.3.0]nonadecan-6-yl]-3-keto-4,6-dimethyl-phenoxazine-1,9-dicarboxamide] (I: T[dV]P[Sar][NMeV] / II: T[dV]P[Sar][NMeV]; ester I:1-I:C, II:1-II:C; linker I:N-II:N via Actinocin(9to1)), 0.041 µM.
The same measure for `CC[N+](C)(CC)CCCCOc1ccc2c(c1)C(=O)c1cc(OCCCC[N+](C)(CC)CC)ccc1-2` [4-[7-[4-[diethyl(methyl)ammonio]butoxy]-9-keto-fluoren-2-yl]oxybutyl-diethyl-methyl-ammonium;iodide]: 4.5 µM; for `COc1ccc(-n2cnnc2SCC(=O)Nc2cc(C)on2)cc1` [2-[[4-(4-methoxyphenyl)-1,2,4-triazol-3-yl]sulfanyl]-N-(5-methyl-1,2-oxazol-3-yl)acetamide]: 100 µM.
The same measure for `CC(=O)Nc1ccc(NC(=O)c2ccc(Cl)nc2)cc1` [Glycopeptide, 2]: 2.5 µM; for `COC(=O)c1ccc(O)c2nc3c(C=O)c(O)cc(O)c3nc12` [6-formyl-4,7-dihydroxy-9-keto-5H-phenazine-1-carboxylic acid methyl ester]: 0.062 µM.
The molecule `O=C(Nc1ccc(C2=NCCN2)cc1)c1ccc(C(=O)Nc2ccc(C3=NCCN3)cc2)c(Cl)c1` registered an inhibitory constant (Ki) of 4 µM. Against the preceding molecule, the Ki is about 65-fold higher.
